The conditions of this series: 298.2 K, 101.3 kPa, Buoyancy - hydrostatic balance.

Numbers after ± are expanded uncertainties.

The term mass density denotes the mass of a sample divided by its volume.

For `Cc1ccc(O)cc1` [4-methylphenol], the mass density (Metastable liquid) is recorded as 1034.4 ± 6 kg/m3.

As for `CCCCOC(C)=O` [butyl ethanoate], the mass density (Liquid) was found to be 882.2 ± 6 kg/m3.

On to `O` [water], for which the mass density (Liquid) is 997.2 ± 6 kg/m3.

Turning to `CC(=O)CC(C)C` [4-methylpentan-2-one], the mass density (Liquid) amounted to 799.8 ± 6 kg/m3.

Consider `Cc1cccc(O)c1` [3-methylphenol], for which, for the setting “Liquid”, the mass density was 1034.5 ± 6 kg/m3.

Consider `Cc1cc(C)cc(C)c1` [1,3,5-trimethylbenzene], for which the mass density (Liquid) is on record as 864 ± 6 kg/m3.

For the compound `CO` [methanol], the mass density (Liquid) was 791 ± 6 kg/m3.

The record behind these values is the NIST ThermoML archive (doi:10.1021/acs.jced.6b00513).
